Test results as given in patent publication US9593108B2, “Compounds and methods for antiviral treatment” (PTC Therapeutics, Inc., priority 2009, dated 2017).

Columns and labels:
[1] = system: HCV replicon RNA (GenBank Accession No. AJ242654); assay: HCV Replicon Assay (replicon RNA reduction and/or Fluc reporter signal); format: cell-based, Hepatitis C virus; conditions: Hepatitis C virus, 72 h, replicon-containing cells cultured with test compound for up to 3 days
Source text: The lack of reliable and readily accessible cell-culture and small animal models permissive for HCV replication has limited the development of new anti-HCV agents. Self-replicating subgenomic HCV systems, termed HCV replicons, have been described and have been widely used to assess the efficacy of anti-HCV inhibitors (see Blight K J, et al., 2000, Efficient initiation of HCV RNA replication in cell culture. Science 290:1972-1974; Blight K J, et al., 2002, Highly permissive cell lines for subgenomic and genomic hepatitis C virus RNA replication. J Virol 76:13001-13014; Ikeda M, et al., 2002. Selectable subgenomic and genome-length dicistronic RNAs derived from an infectious molecular clone of the HCV-N strain of hepatitis C virus replicate efficiently in cultured Huh7 cells. J Virol 76:2997-3006; Lohmann V, et al., 1999, Replication of subgenomic hepatitis C virus RNAs in a hepatoma cell line. Science 285:110-113; Pietschmann T, et al., 2002, Persistent and transient replication of full-length hepatitis C virus genomes in cell culture. J Virol 76:4008-4021; and, Pietschmann T, et al., 2001, Characterization of cell lines carrying self-replicating hepatitis C virus RNAs. J Virol 75:1252-1264).
As described in U.S. Pat. No. 6,630,343, HCV inhibitors are analyzed in the bicistronic replicon by quantitating replicon RNA (GenBank Accession No. AJ242654) reduction and/or the Fluc reporter signal. Replicon-containing cells may be cultured with a test compound of the present invention for up to 3 days. Interferon (IFN) is used as a positive control. In general, the replicon IC50 values shown in Table 1 represent IC50 values determined by replicon RNA reduction.

For `CC(C)NS(=O)(=O)c1ccc(-c2c(C#N)c3cc(Cl)cnc3n2CC2CC2)cc1` [Cpd 1, 4-[5-chloro-3-cyano-1-(cyclopropylmethyl)-1H-pyrrolo[2,3-b]pyridin-2-yl]-N-(propan-2-yl)benzenesulfonamide], the IC50 [1] was < 500 nM and the melting point was 113 to 116 °C.
With `COc1cnc2c(c1)c(C#N)c(-c1ccc(S(=O)(=O)NC(C)C)cc1)n2CC1CC1` [Cpd 2, 4-[3-cyano-1-(cyclopropylmethyl)-5-methoxy-1H-pyrrolo[2,3-b]pyridin-2-yl]-N-(propan-2-yl)benzenesulfonamide] the IC50 [1] was < 500 nM and the melting point was 151 to 153 °C.
For `COc1ccc2c(n1)c(C#N)c(-c1ccc(NS(=O)(=O)C(C)C)cc1)n2CC1CC1` [Cpd 3, N-{4-[3-cyano-1-(cyclopropylmethyl)-5-methoxy-1H-pyrrolo[3,2-b]pyridin-2-yl]phenyl}propane-2-sulfonamide], the IC50 [1] was < 500 nM and the melting point was 230 to 232 °C.
With `CC(C)NS(=O)(=O)c1ccc(-c2c(C#N)c3cc(F)cnc3n2CC2CC2)cc1` [Cpd 4, 4-[3-cyano-1-(cyclopropylmethyl)-5-fluoro-1H-pyrrolo[2,3-b]pyridin-2-yl]-N-(propan-2-yl)benzenesulfonamide] the IC50 [1] was 2000 to 5000 nM and the melting point was 162 to 165 °C.
In the case of `Cc1ccc2c(C#N)c(-c3ccc(S(=O)(=O)NC(C)C)cc3)n(CC3CC3)c2n1` [Cpd 5, 4-[3-cyano-1-(cyclopropylmethyl)-6-methyl-1H-pyrrolo[2,3-b]pyridin-2-yl]-N-(propan-2-yl)benzenesulfonamide], the IC50 [1] is reported as < 500 nM and the melting point is reported as 175 to 177 °C.
With `CC(C)NS(=O)(=O)c1ccc(-c2c(C#N)c3cc(Cl)cnc3n2C2CCC2)cc1` [Cpd 6, 4-(5-chloro-3-cyano-1-cyclobutyl-1H-pyrrolo[2,3-b]pyridin-2-yl)-N-(propan-2-yl)benzenesulfonamide] the IC50 [1] was < 500 nM and the melting point was 172 to 175 °C.
`CC(C)NS(=O)(=O)c1ccc(-c2c(C#N)c3cccnc3n2C2CCC2)cc1` [Cpd 7, 4-(3-cyano-1-cyclobutyl-1H-pyrrolo[2,3-b]pyridin-2-yl)-N-(propan-2-yl)benzenesulfonamide] showed an IC50 [1] of 500 to 2000 nM and a melting point of 198 to 200 °C.
With `CC1(NS(=O)(=O)c2ccc(-c3c(C(N)=O)c4cc(Cl)cnc4n3C3CCC3)nc2)CC1` [Cpd 366, 5-chloro-1-cyclobutyl-2-{5-[(1-methylcyclopropyl)sulfamoyl]pyridin-2-yl}-1H-pyrrolo[2,3-b]pyridine-3-carboxamide] the IC50 [1] was < 500 nM.
`C[C@H](NS(=O)(=O)c1cnc(-c2c(C(N)=O)c3cccnc3n2C2CCC2)nc1)C(F)(F)F` [Cpd 367, 1-cyclobutyl-2-(5-{[(2S)-1,1,1-trifluoropropan-2-yl]sulfamoyl}pyrimidin-2-yl)-1H-pyrrolo[2,3-b]pyridine-3-carboxamide] showed an IC50 [1] of 2000 to 5000 nM.
`CC(C)(C)NS(=O)(=O)c1ccc(-c2c(C#N)c3cc(F)cnc3n2C2CCC2)cc1` [Cpd 369, N-tert-butyl-4-(3-cyano-1-cyclobutyl-5-fluoro-1H-pyrrolo[2,3-b]pyridin-2-yl)benzenesulfonamide] gave an IC50 [1] of 500 to 2000 nM.
With `C[C@H](NS(=O)(=O)c1ccc(-c2c(C#N)c3cc(S(C)(=O)=O)cnc3n2C2CCC2)nc1)C(F)(F)F` [Cpd 370, 6-[3-cyano-1-cyclobutyl-5-(methylsulfonyl)-1H-pyrrolo[2,3-b]pyridin-2-yl]-N-[(2S)-1,1,1-trifluoropropan-2-yl]pyridine-3-sulfonamide] the IC50 [1] was < 500 nM.
With `CC(C)(NS(=O)(=O)c1ccc(-c2c(C(N)=O)c3cc(C4CC4)cnc3n2C2CCC2)cc1)C(F)(F)F` [Cpd 372, 1-cyclobutyl-5-cyclopropyl-2-{4-[(1,1,1-trifluoro-2-methylpropan-2-yl)sulfamoyl]phenyl}-1H-pyrrolo[2,3-b]pyridine-3-carboxamide] the IC50 [1] was < 500 nM.
In the case of `NC(=O)c1c(-c2ccc(S(=O)(=O)NC3(C(F)(F)F)CC3)cn2)n(C2CCC2)c2ncc(C3CC3)cc12` [Cpd 374, 1-cyclobutyl-5-cyclopropyl-2-(5-{[1-(trifluoromethyl)cyclopropyl]sulfamoyl}pyridin-2-yl)-1H-pyrrolo[2,3-b]pyridine-3-carboxamide], the IC50 [1] is reported as < 500 nM.
For `CC(C)(C)NS(=O)(=O)c1ccc(-c2c(C(N)=O)c3cc(C4CC4)cnc3n2C2CCC2)cc1` [Cpd 375, 2-[4-(tert-butylsulfamoyl)phenyl]-1-cyclobutyl-5-cyclopropyl-1H-pyrrolo[2,3-b]pyridine-3-carboxamide], the IC50 [1] was < 500 nM.
With `CCc1cnc2c(c1)c(C(N)=O)c(-c1ccc(S(=O)(=O)NC3(C(F)(F)F)CC3)cn1)n2C1CCC1` [Cpd 380, 1-cyclobutyl-5-ethyl-2-(5-{[1-(trifluoromethyl)cyclopropyl]sulfamoyl}pyridin-2-yl)-1H-pyrrolo[2,3-b]pyridine-3-carboxamide] the IC50 [1] was < 500 nM.
In the case of `CCc1cnc2c(c1)c(C(N)=O)c(-c1ccc(S(=O)(=O)NC(C)(C)C)cc1)n2C1CCC1` [Cpd 381, 2-[4-(tert-butylsulfamoyl)phenyl]-1-cyclobutyl-5-ethyl-1H-pyrrolo[2,3-b]pyridine-3-carboxamide], the IC50 [1] is reported as < 500 nM.
Molecule `CCc1cnc2c(c1)c(C(N)=O)c(-c1ccc(S(=O)(=O)NC(C)(C)C)cn1)n2C1CCC1` [Cpd 382, 2-[5-(tert-butylsulfamoyl)pyridin-2-yl]-1-cyclobutyl-5-ethyl-1H-pyrrolo[2,3-b]pyridine-3-carboxamide] has an IC50 [1] of 500 to 2000 nM.
For `CSc1cnc2c(c1)c(C(=O)O)c(-c1ccc(S(=O)(=O)N[C@@H](C)C(F)(F)F)cn1)n2C1CCC1` [Cpd 386, 1-cyclobutyl-5-(methylsulfanyl)-2-(5-{[(2S)-1,1,1-trifluoropropan-2-yl]sulfamoyl}pyridin-2-yl)-1H-pyrrolo[2,3-b]pyridine-3-carboxylic acid], the IC50 [1] was 500 to 2000 nM.
With `CSc1cnc2c(c1)c(C(N)=O)c(-c1ccc(S(=O)(=O)NC3(C(F)(F)F)CC3)cc1)n2C1CCC1` [Cpd 389, 1-cyclobutyl-5-(methylsulfanyl)-2-(4-{[1-(trifluoromethyl)cyclopropyl]sulfamoyl}phenyl)-1H-pyrrolo[2,3-b]pyridine-3-carboxamide] the IC50 [1] was < 500 nM.
Work on `CSc1cnc2c(c1)c(C(=O)O)c(-c1ccc(S(=O)(=O)NC3(C(F)(F)F)CC3)cc1)n2C1CCC1` [Cpd 390, 1-cyclobutyl-5-(methylsulfanyl)-2-(4-{[1-(trifluoromethyl)cyclopropyl]sulfamoyl}phenyl)-1H-pyrrolo[2,3-b]pyridine-3-carboxylic acid] yielded an IC50 [1] of 500 to 2000 nM.
With `CNc1cnc2c(c1)c(C#N)c(-c1ccc(S(=O)(=O)N[C@@H](C)C(F)(F)F)cn1)n2C1CCC1` [Cpd 394, 6-[3-cyano-1-cyclobutyl-5-(methylamino)-1H-pyrrolo[2,3-b]pyridin-2-yl]-N-[(2S)-1,1,1-trifluoropropan-2-yl]pyridine-3-sulfonamide] the IC50 [1] was < 500 nM.
In the case of `N#Cc1c(-c2ccc(S(=O)(=O)NC3(C(F)(F)F)CC3)cc2)n(C2CCC2)c2ncc(C(F)(F)F)cc12` [Cpd 397, 4-[3-cyano-1-cyclobutyl-5-(trifluoromethyl)-1H-pyrrolo[2,3-b]pyridin-2-yl]-N-[1-(trifluoromethyl)cyclopropyl]benzenesulfonamide], the IC50 [1] is reported as < 500 nM.
With `COc1cnc2c(c1)c(C(N)=O)c(-c1ccc(S(=O)(=O)NC3(C)CC3)cn1)n2C1CCCC1` [Cpd 410, 1-cyclopentyl-5-methoxy-2-{5-[(1-methylcyclopropyl)sulfamoyl]pyridin-2-yl}-1H-pyrrolo[2,3-b]pyridine-3-carboxamide] the IC50 [1] was 500 to 2000 nM.
For `CC(C)(C)S(=O)(=O)Nc1ccc(-c2c(C(N)=O)c3cc(C(F)(F)F)cnc3n2C2CCCCC2)cc1` [Cpd 445, 2-{4-[(tert-butylsulfonyl)amino]phenyl}-1-cyclohexyl-5-(trifluoromethyl)-1H-pyrrolo[2,3-b]pyridine-3-carboxamide], the IC50 [1] was < 500 nM.
With `[C-]#[N+]c1cnc(-n2c(-c3ccc(S(=O)(=O)N[C@@H](C)C(F)(F)F)cn3)c(C#N)c3cc(C)cnc32)s1` [Cpd 451, 6-[3-cyano-1-(5-isocyano-1,3-thiazol-2-yl)-5-methyl-1H-pyrrolo[2,3-b]pyridin-2-yl]-N-[(2S)-1,1,1-trifluoropropan-2-yl]pyridine-3-sulfonamide] the IC50 [1] was < 500 nM.
With `CC(C)(NS(=O)(=O)c1ccc(-c2c(C#N)c3cc(C(F)F)cnc3n2C2CCC2)nc1)C(F)(F)F` [Cpd 456, 6-[3-cyano-1-cyclobutyl-5-(difluoromethyl)-1H-pyrrolo[2,3-b]pyridin-2-yl]-N-(1,1,1-trifluoro-2-methylpropan-2-yl)pyridine-3-sulfonamide] the IC50 [1] was < 500 nM.
For `N#Cc1c(-c2ccc(S(=O)(=O)NC3(C(F)(F)F)CC3)cn2)n(C2CCC2)c2ncc(C(F)F)cc12` [Cpd 457, 6-[3-cyano-1-cyclobutyl-5-(difluoromethyl)-1H-pyrrolo[2,3-b]pyridin-2-yl]-N-[1-(trifluoromethyl)cyclopropyl]pyridine-3-sulfonamide], the IC50 [1] was < 500 nM.
